Source: PubChem BioAssay (NCI)
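In this assay, cells in 96-well plates receive the compound at five concentrations for 48 hours. Endpoints are linearly interpolated between the surrounding concentrations. TGI marks complete inhibition of growth.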

Tests used:
Assay in all cases: growth of human tumour cells (NCI), 48 h
[1] = test system: HCC-2998 colon
[2] = test system: PC-3 prostate
[3] = test system: ACHN renal
[4] = test system: HCT-116 colon
[5] = test system: KM12 colon
[6] = test system: U251 CNS
[7] = test system: SR leukemia
[8] = test system: SK-MEL-28 melanoma
[9] = test system: HCT-15 colon
[10] = test system: NCI/ADR-RES ovarian
[11] = test system: SK-MEL-5 melanoma
[12] = test system: CAKI-1 renal
[13] = test system: MALME-3M melanoma
[14] = test system: UACC-257 melanoma

COc1cccc2c(Nc3ccc(S(=O)(=O)NC(C)=O)cc3)c3ccc([N+](=O)[O-])cc3nc12
TGI [1]: > 100 µM | TGI [2]: > 100 µM | TGI [3]: > 100 µM | TGI [4]: > 100 µM | TGI [5]: > 35.3 µM | TGI [6]: > 53.5 µM | TGI [7]: 34.3 µM | TGI [8]: > 79.5 µM | TGI [9]: > 100 µM | TGI [10]: > 100 µM | TGI [11]: > 78.3 µM | TGI [12]: > 100 µM | TGI [13]: > 87 µM | TGI [14]: > 54.9 µM

CCOP(=O)(OCC)c1ccc(=O)[nH]c1-c1cccs1
TGI [1]: > 100 µM | TGI [2]: > 100 µM | TGI [3]: > 100 µM | TGI [4]: > 100 µM | TGI [5]: > 100 µM | TGI [6]: > 100 µM | TGI [7]: > 100 µM | TGI [8]: > 100 µM | TGI [9]: > 100 µM | TGI [10]: > 100 µM | TGI [11]: > 100 µM | TGI [12]: > 100 µM | TGI [13]: > 100 µM | TGI [14]: > 100 µM

CCOC(=O)C(NC(=O)CC(C)C)(Nc1ccc(S(=O)(=O)Nc2nc(C)cc(C)n2)cc1)C(F)(F)F (centres undefined)
TGI [1]: 99.2 µM | TGI [2]: > 100 µM | TGI [3]: > 100 µM | TGI [4]: > 100 µM | TGI [5]: > 100 µM | TGI [6]: > 100 µM | TGI [7]: > 100 µM | TGI [8]: > 100 µM | TGI [9]: > 100 µM | TGI [10]: > 100 µM | TGI [11]: > 100 µM | TGI [12]: > 100 µM | TGI [13]: > 100 µM | TGI [14]: > 100 µM

C=C1CC(C)(COc2ccc3ccc(=O)oc3c2)OC1=O (centres undefined)
TGI [1]: 6.96 µM | TGI [2]: 16.2 µM | TGI [3]: 11.2 µM | TGI [4]: 6.38 µM | TGI [5]: 17.6 µM | TGI [6]: 27.1 µM | TGI [7]: > 20.7 µM | TGI [8]: 11.2 µM | TGI [9]: 8.71 µM | TGI [10]: 11.2 µM | TGI [11]: 6.65 µM | TGI [12]: 7.84 µM | TGI [13]: 6.31 µM | TGI [14]: 2.58 µM

Cc1ccc(S(=O)(=O)NC2C(=O)c3ccccc3C(=O)C2n2cnc3ccccc32)cc1 (centres undefined)
TGI [1]: 34.7 µM | TGI [2]: 64.3 µM | TGI [3]: > 100 µM | TGI [4]: > 100 µM | TGI [5]: > 100 µM | TGI [6]: > 100 µM | TGI [7]: > 100 µM | TGI [8]: > 100 µM | TGI [9]: > 100 µM | TGI [10]: 73.6 µM | TGI [11]: 42.6 µM | TGI [12]: > 100 µM | TGI [13]: 1.81 µM | TGI [14]: > 100 µM

COc1ccc2c(c1)CCc1[nH]c3ccccc3c1CCCC2
TGI [1]: > 10 µM | TGI [2]: > 10 µM | TGI [3]: > 10 µM | TGI [4]: > 10 µM | TGI [5]: > 10 µM | TGI [6]: > 10 µM | TGI [7]: > 10 µM | TGI [8]: > 10 µM | TGI [9]: > 10 µM | TGI [10]: > 10 µM | TGI [11]: > 10 µM | TGI [12]: > 10 µM | TGI [13]: > 10 µM | TGI [14]: > 10 µM

CC1(C)CCCCCCC2OC2CCCCCC(C)(C)C1=O (centres undefined)
TGI [1]: > 70.8 µM | TGI [2]: > 94.6 µM | TGI [3]: > 65 µM | TGI [4]: > 100 µM | TGI [5]: 97 µM | TGI [6]: 63.2 µM | TGI [7]: > 70 µM | TGI [8]: > 100 µM | TGI [9]: > 100 µM | TGI [10]: > 88.2 µM | TGI [11]: 50.2 µM | TGI [12]: > 100 µM | TGI [13]: > 100 µM | TGI [14]: > 93.5 µM

CNn1c(C)n[nH]c1=O
TGI [1]: > 100 µM | TGI [2]: > 100 µM | TGI [3]: > 100 µM | TGI [4]: > 100 µM | TGI [5]: > 100 µM | TGI [6]: > 100 µM | TGI [7]: > 100 µM | TGI [8]: > 100 µM | TGI [9]: > 100 µM | TGI [10]: > 100 µM | TGI [11]: > 100 µM | TGI [12]: > 100 µM | TGI [13]: > 100 µM | TGI [14]: > 100 µM

COc1ccc(-c2c(CN3CCOCC3)sc3nc4ccccc4n23)cc1
TGI [1]: 99.2 µM | TGI [2]: > 67.4 µM | TGI [3]: > 100 µM | TGI [4]: > 57 µM | TGI [5]: > 100 µM | TGI [6]: 41.5 µM | TGI [7]: 15.1 µM | TGI [8]: 98.6 µM | TGI [9]: > 95 µM | TGI [10]: > 42.8 µM | TGI [11]: 98.8 µM | TGI [12]: > 100 µM | TGI [13]: > 100 µM | TGI [14]: > 100 µM

O=C(O)c1ccc(Nc2nc3ccccc3nc2-c2cccs2)cc1
TGI [1]: > 100 µM | TGI [2]: > 100 µM | TGI [3]: > 100 µM | TGI [4]: > 100 µM | TGI [5]: > 100 µM | TGI [6]: > 100 µM | TGI [7]: > 100 µM | TGI [8]: > 100 µM | TGI [9]: > 100 µM | TGI [10]: > 100 µM | TGI [11]: > 100 µM | TGI [12]: > 100 µM | TGI [13]: > 100 µM | TGI [14]: > 100 µM

COc1ccc(C(c2c[nH]c3ccc(Br)cc23)c2c[nH]c3ccc(Br)cc23)cc1
TGI [1]: 0.353 µM | TGI [2]: 0.843 µM | TGI [3]: 0.845 µM | TGI [4]: 0.349 µM | TGI [5]: 0.468 µM | TGI [6]: 0.557 µM | TGI [7]: 0.418 µM | TGI [8]: 0.743 µM | TGI [9]: 0.624 µM | TGI [10]: 4.34 µM | TGI [11]: 1.12 µM | TGI [12]: 1.64 µM | TGI [13]: 2.23 µM | TGI [14]: 0.947 µM
